The source of these data is a melting point compilation (Tetko et al.; mined from patent text by program, amines drawn as free bases though some values may be those of a salt).

Consider `c1cncc(CN2CCN(CCCCc3c[nH]c4ccc(-n5cnnc5)cc34)CC2)c1`, for which the melting point is 110 to 112 °C.
For `CCOC(=O)c1cn(Cc2cccnc2)nc1OCc1ccc(OCc2nc(-c3ccco3)oc2C)c(OC)c1`, the melting point was 131 to 132 °C.
In the case of `CC(C)(C)c1cc(Br)c(O)c(C=NO)c1`, the melting point was 167 to 169 °C.
As for `CCCOc1ccccc1-c1nc(-c2nnn[nH]2)cc(=O)[nH]1`, the melting point was in the range of 219 to 221 °C.
To `CN(C)CCc1c[nH]c2ccc([N+](=O)[O-])cc12` belongs 132 to 135 °C.
`O=[N+]([O-])c1ccccc1Cc1n[nH]c(Cl)n1` had a melting point of 160 to 163 °C.
Take `Cc1cccc(NC(=O)NCC(=O)N(CC(=O)OC2CCCCC2)c2ccccc2)c1`: the melting point is 176 °C.
Regarding `CN1CCCNC(=O)C1`, the melting point amounted to 91 °C.
As for `CON=C(C(=O)O)c1csc(=N)n1O`, the melting point is 209 to 210 °C.
The figure for `COc1ccc(C(C#Cc2ccccc2)Cc2nnc(C)o2)cc1OC1CCCC1` (racemic) is 105 to 106 °C; for `Cn1cnnc1COc1nn2c(-c3ccccc3)nnc2cc1-c1ccccc1` it is 230 to 235 °C; for `c1ccc(N(Cc2cccc3ccccc23)c2ccccc2)cc1` it is 170 to 172 °C.
Molecule `C[C@]12CC/C(=C\F)C=C1CC[C@@H]1[C@@H]2CC[C@]2(C)C(=O)CC[C@@H]12` gave a melting point of 101 to 102 °C.
`CCC(=O)c1ccc2c(c1)N(C(C)=O)c1ccccc1S2`: the melting point lay within 146 to 147 °C.
To `CN(CCCNc1ncc(Cc2ccccc2)c(=O)[nH]1)c1ccccn1` belongs 75 to 85 °C.
To `CC1CC(=O)c2cc([N+](=O)[O-])cnc2C1` (stereo not drawn) belongs 64 to 67 °C; to `COc1ccc(C(=O)Nc2c(Cl)cncc2Cl)cc1OC1COCC1OCc1ccccc1` (stereo not drawn), 190 to 191 °C.
As for `CC(=O)Nc1ccc(P(=O)(O)O)cc1`, the melting point turned out to be 228 °C.
The figure for `COc1cc(NC(=O)C2C(=O)N(C)C(=O)N(C)C2=O)ccc1O` is 252 to 253 °C.
To `CCOc1ccc(-c2nn(C(C)c3oc4ccccc4c(=O)c3-c3cccc(F)c3)c3ncnc(N)c23)cc1` (stereo not drawn) belongs 229 to 232 °C; to `Cc1ccc(C(=O)c2[nH]c3cc(Cl)ccc3c2CC(=O)O)cc1`, 182 to 184 °C.
Turning to `CSCCc1nc(N2CCc3ccccc3CC2)c(C#N)c(=O)n1CCO`, the melting point was 93 to 99 °C.
To `CC(=O)OCC(=O)C1(OC(C)=S)CCC2C3CC(C)C4=CC(=O)C=CC4(C)C3C(O)CC21C` (stereo not drawn) belongs 149 to 151 °C; to `COc1cc2c(cc1C(O)c1ccccc1)C=C2C(=O)O` (stereo not drawn), 143 to 146 °C; to `COc1cc(Nc2c(C#N)cnc3cc(-c4cnc(C=O)n4C)sc23)c(Cl)cc1Cl`, 225 to 227 °C.
To `CC(=O)OCC(=O)Nc1ccc(C(CC2CCCC2)C(=O)Nc2nccs2)cc1` (stereo not drawn) belongs 90 to 95 °C; to `CS(=O)(=O)Nc1cc(C(c2cc(F)ccc2F)S(=O)(=O)c2ccc(Cl)cn2)c(Cl)cn1` (stereo not drawn), 214 to 216 °C.
The figure for `CC1(C2CCC3C4C=CC5=CC(=O)C6OC6C5(C)C4CCC32C)OCCO1` (stereo not drawn) is 137 to 138 °C; for `CN(C)c1ccc(CN/C=C2\C(=O)NC(=O)c3ccc(I)cc32)cc1O` it is 198 to 199 °C; for `C=CCOc1ccccc1OCC(O)CNCCOc1ccc(O)c(C(N)=O)c1` (stereo not drawn) it is 147 to 148 °C.
In turn, `CC(C)(C)OC(=O)NC(Cc1c[nH]cn1)C(=O)N1CCCC1C(N)=O` (stereo not drawn) had a melting point of 97 to 101 °C.
The figure for `Cc1cn2c(c1C(=O)OC(C)C)SCC2CC(N)=O` (stereo not drawn) is 143 to 146 °C.
Molecule `CN1CCOc2ccc(S(=O)(=O)n3c(Cc4ccc(C(=O)O)cc4)cc4cc(C(F)(F)F)ccc43)cc21` had a melting point of 206 °C.
As to `Cc1c(Cc2ccncc2)nnc(Nc2cccc(Cl)c2)c1C`, the melting point lay within 164 to 167 °C.
The figure for `OC/C=C/c1ccc(O)c(OCc2ccccc2)c1` is 99 to 101 °C; for `COc1cc2c(cc1OC)C1Cc3cc(OC)c(OC(C)=O)cc3CN1CC2` (stereo not drawn) it is 162 to 164 °C; for `CC(=O)C1CCC2=C(C1)C(=O)c1cc3ccccc3cc1C2=O` (stereo not drawn) it is 189 to 192 °C.
The figure for `O=C1C(=O)c2ccccc2C2=C1SCC1(CCN(c3cc(Cl)ncn3)CC1)O2` is 172 to 174 °C.
To `CCc1cncnc1Nc1ccc(C(=O)CCC2CCN(Cc3ccccc3)CC2)cc1` belongs 136 to 138 °C; to `O=C(O)c1ccn(-c2ccc(C(=O)O)c(Cl)c2)n1`, 260 to 263 °C.
The molecule `O=C(NC(Cc1c[nH]c2ccccc12)C(=O)C(=O)CCl)OC1C2CC3CC(C2)CC1C3` (stereo not drawn) gave a melting point of 56 to 63 °C.
To `CCOc1cc2c(Cl)c(C#N)cnc2cc1NC(C)=O` belongs 202 to 204 °C; to `CCOC(=O)C(C)c1ccc2c(c1)C(=O)c1ccccc1CS2` (stereo not drawn), 91 to 93 °C; to `O=C1OC2=C(COc3ccccc32)C1=O`, 146 to 148 °C.
In turn, `CC(=O)NC1(c2ccccc2)CCN(CCC(CN(CCc2ccccc2)CCc2ccccc2)c2ccc(Cl)c(Cl)c2)CC1` (stereo not drawn) came in with a melting point of 60 to 62 °C.
Consider `CONC(=O)N1N=C(c2ccc([N+](=O)[O-])c(C)c2)c2cc3c(cc2CC1C)OCO3` (stereo not drawn), for which the melting point lay within 192 to 195 °C.
The molecule `C=CCOc1cc(C(=O)O)cc(S(C)(=O)=O)c1OCC=C` displayed a melting point of 163 °C.
The figure for `c1cc2cc3ccc(OCCN4CCCCC4)cc3nc2cc1OCCN1CCCCC1` is 129 to 130 °C.
To `COc1cc2ccc3nc4ccccc4cc3c2cc1OC` belongs 190 to 192 °C; to `CC1C(=O)NCC1C(N)=O` (stereo not drawn), 169 to 171 °C.
The figure for `O=C(c1nccs1)c1cnn2c(-c3ccncc3)ccnc12` is 323 to 325 °C.
In turn, `CC1(C)NC2(CCCCC2)NC1(C)C` came in with a melting point of 31 to 32 °C.
To `NC(=O)NN=Cc1ccc(OCCc2coc(-c3ccccc3)n2)cc1` belongs 221 to 226 °C; to `Cc1cn(-c2ccc(NC(=O)c3ccc(C)c(Nc4nccc(-c5cccnc5)n4)c3)cc2C(F)(F)F)cn1`, 154 to 163 °C.
On to `CC(=O)Oc1ccc(CCC2CC(=O)OC(=O)C2)cc1`, for which the melting point was 97 to 99 °C.
The molecule `CCCCc1nn(-c2cc(NC(=O)CC)ccc2C(F)(F)F)c(=O)n1Cc1ccc(-c2ccccc2S(=O)(=O)NC(=O)OC(C)(C)C)cc1` gave a melting point of 158 to 161 °C.
The figure for `CC(C)(C)COc1ccc(NC(=O)c2cnn(-c3ccc(F)cc3)c2Cl)cc1C#N` is 149 to 150 °C; for `COc1ccc(-c2c(C=O)cc(OC)c(OC)c2OC)c(C=O)c1OS(C)(=O)=O` it is 130 to 131 °C.
To `Cn1c(=O)c2[nH]c(C3CCSC3)nc2n(C)c1=O` (stereo not drawn) belongs 217 to 219 °C; to `COc1ccc(C(=O)c2cc3cccc(Br)c3o2)cc1OC`, 137 to 138 °C; to `O=C(O)c1ccc(-c2cc(-c3ccc(Cl)cc3)on2)cc1`, more than 300 °C.
Take `Cc1nc(OC(F)F)c(C#N)c(N2CCc3ccccc3CC2)n1`: the melting point was determined as 143 °C.
To `CCC1(c2c[nH]cn2)Cc2ccc(N)cc2C1` (stereo not drawn) belongs 145 to 152 °C.

By melting point is commonly meant the temperature of the solid-liquid transition.
